According to patent US20100167931A1, “HETEROCYCLICALLY SUBSTITUTED HETEROCYCLYLCARBOXYLIC ACID DERIVATIVES” (Bayer CropScience AG, priority 2007, published 2010):

test system: not listed separately; test: logP determination by HPLC on reverse-phase column (EEC Directive 79/831 Annex V.A8); type: physicochemical; settings: HPLC reverse-phase C 18, 43° C., pH 2.7, 0.1% aqueous formic acid and acetonitrile
Protocol: The logP values given in the tables and preparation examples above were determined in accordance with EEC Directive 79/831 Annex V.A8 by HPLC (High Performance Liquid Chromatography) on a reverse-phase column (C 18). Temperature: 43° C. The determination was carried out by LC-MS at pH 2.7 using 0.1% aqueous formic acid and acetonitrile (containing 0.1% formic acid) as mobile phases; linear gradient from 10% acetonitrile to 95% acetonitrile. Calibration was carried out using unbranched alkan-2-ones (having 3 to 16 carbon atoms) with known logP values (determination of the logP values by the retention times using linear interpolation between two successive alkanones).

logP | SMILES
m/z 469, logP 3.22 | O=C(O)c1cnn2c(NCC3CC3)c(-n3nc(C(F)(F)F)cc3C(F)(F)F)c(Cl)nc12 [Example I-23]
logP 2.20 | Cc1nn(C)c(-c2c(Cl)nc3c(C(=O)O)cnn3c2NC(C)C)c1Cl [Example I-57]
m/z 383, logP 2.81 | CC(C)C(C)Nc1c(-n2cc(Cl)cn2)c(Cl)nc2c(C(=O)O)cnn12 (centres unmarked) [Example I-25]
m/z 457, logP 3.11 | CC(C)Nc1c(-n2nc(C(F)(F)F)cc2C(F)(F)F)c(Cl)nc2c(C(=O)O)cnn12 [Example I-20]

same assay, conditions: intermediates of the formula (IV); HPLC reverse-phase C18, 43° C., pH 2.7 (0.1% aqueous formic acid/acetonitrile)

logP | SMILES
logP 0.65 | COC(=O)c1cnn2c(O)c(-c3ncccc3C(F)(F)F)c(O)nc12 [IV-20]
m/z 310, logP 0.43 | COC(=O)c1cnn2c(O)c(-n3cc(Cl)cn3)c(O)nc12 [IV-4]
m/z 321, logP 0.43 | COC(=O)c1cnn2c(O)c(-c3nc(C)sc3C)c(O)nc12 [IV-5]
logP 0.78 | COC(=O)c1cnn2c(O)c(-c3cncc(Br)c3)c(O)nc12 [IV-15]
m/z 412, logP 1.37 | COC(=O)c1cnn2c(O)c(-n3nc(C(F)(F)F)cc3C(F)(F)F)c(O)nc12 [IV-3]
logP 0.59 | COC(=O)c1cnn2c(O)c(-c3c(Cl)c(C)nn3C)c(O)nc12 [IV-17]
logP 0.91 | COC(=O)c1cnn2c(O)c(-c3ncc(C(F)(F)F)cc3F)c(O)nc12 [IV-19]

same assay, conditions: intermediates of the formula (V); HPLC reverse-phase C18, 43° C., pH 2.7 (0.1% aqueous formic acid/acetonitrile)

logP | SMILES
m/z 448, logP 3.64 | COC(=O)c1cnn2c(Cl)c(-n3nc(C(F)(F)F)cc3C(F)(F)F)c(Cl)nc12 [V-3]
logP 2.67 | COC(=O)c1cnn2c(Cl)c(-c3c(Cl)c(C)nn3C)c(Cl)nc12 [V-18]
m/z 354, logP 1.88 | COC(=O)c1cnn2c(Cl)c(-c3c(C)nn(C)c3C)c(Cl)nc12 [V-8]
logP 2.61 | COC(=O)c1cnn2c(Cl)c(-c3ncccc3C(F)(F)F)c(Cl)nc12 [V-21]
m/z 346, logP 2.50 | COC(=O)c1cnn2c(Cl)c(-n3cc(Cl)cn3)c(Cl)nc12 [V-5]

same assay, conditions: intermediates of the formula (VI); HPLC reverse-phase C18, 43° C., pH 2.7 (0.1% aqueous formic acid/acetonitrile)

logP | SMILES
m/z 431, logP 2.54 | COC(=O)c1cnn2c(NC(C)C(F)(F)F)c(-c3c(C)nn(C)c3C)c(Cl)nc12 (centres unmarked) [VI-12]
m/z 397, logP 3.59 | COC(=O)c1cnn2c(NC(C)C(C)C)c(-n3cc(Cl)cn3)c(Cl)nc12 (centres unmarked) [VI-9]
m/z 382, logP 2.76 | COC(=O)c1cnn2c(NC(C)C)c(-c3ncc(F)cc3F)c(Cl)nc12 [VI-11]

same assay, conditions: reverse-phase C18 HPLC column; HPLC reverse-phase C 18, 43° C., pH 2.7, 0.1% aqueous formic acid and acetonitrile

SMILES | chromatographic logP
N#CC(C#N)c1c(Cl)cncc1Cl [2-(3,5-dichloropyridin-4-yl)malononitrile] | 0.9
COC(=O)c1cnn2c(Cl)c(-c3ncc(Cl)cc3Cl)c(Cl)nc12 [Example V-2, Methyl 5,7-dichloro-6-(3,5-dichloropyridin-2-yl)pyrazolo[1,5-a]pyrimidine-3-carboxylate] | 3.12
COC(=O)c1cnn2c(Cl)c(-n3nc(C)cc3C)c(Cl)nc12 [Example V-1, Methyl 5,7-dichloro-6-(3,5-dimethyl-1H-pyrazol-1-yl)pyrazolo[1,5-a]pyrimidine-3-carboxylate] | 2.16

Further lines, results first:

chromatographic logP | SMILES
0.74 | COC(=O)c1cnn2c(O)c(-c3ncc(Cl)cc3Cl)c(O)nc12 [IV-2, Methyl 6-(3,5-dichloropyridin-2-yl)-5,7-dihydroxypyrazolo[1,5-a]pyrimidine-3-carboxylate]
0.41 | COC(=O)c1cnn2c(O)c(-n3nc(C)cc3C)c(O)nc12 [IV-1, Methyl 6-(3,5-dimethyl-1H-pyrazol-1-yl)-5,7-dihydroxypyrazolo[1,5-a]pyrimidine-3-carboxylate]
3.79 | COC(=O)c1cnn2c(NCC(F)(F)F)c(-n3nc(C(F)(F)F)cc3C(F)(F)F)c(Cl)nc12 [VI-2, Methyl 6-[3,5-bis(trifluoromethyl)-1H-pyrazol-1-yl]-5-chloro-7-[(2,2,2-trifluoroethyl)amino]-pyrazolo[1,5-a]pyrimidine-3-carboxylate]

test system: green peach aphid (Myzus persicae); test: Activity increase by ammonium/phosphonium salts in combination with penetrants, Myzus persicae test; type: in vivo; settings: 20 ppm, +AS 1000 ppm, bell pepper plants
Protocol: Activity Increase by Ammonium/Phosphonium Salts in Combination with Penetrants Myzus persicae Test
Solvent: 7 parts by weight of dimethylformamide
Emulsifier: 2 parts by weight of alkylaryl polyglycol ether
To produce a suitable preparation of active compound, 1 part by weight of active compound is mixed with the stated amounts of solvent and emulsifier, and the concentrate is diluted with emulsifier-containing water to the desired concentration. If the addition of ammonium salts or ammonium salts and penetrants is required, these are in each case added in a concentration of 1000 ppm after dilution to the finished solution of the preparation.
Bell pepper plants (Capsicum annuum) which are heavily infested by the green peach aphid (Myzus persicaei) are treated by being sprayed with the active compound preparation at the desired concentration.
After the desired period of time, the kill in % is determined. 100% means that all animals have been killed; 0% means that none of the animals have been killed.

SMILES | Kill (%) after 6 d +AS 1000 ppm [%]
CC(C)Nc1c(-c2ncccc2Cl)c(Cl)nc2c(C(=O)NS(C)(=O)=O)cnn12 [Example I-32] | 60

same assay, conditions: 20 ppm, +AS + RME in each case 1000 ppm, bell pepper plants

SMILES | Kill (%) after 6 d +AS + RME in each case 1000 ppm [%]
CC(C)Nc1c(-c2ncccc2Cl)c(Cl)nc2c(C(=O)NS(C)(=O)=O)cnn12 [Example I-32] | 90

same assay, conditions: 20 ppm, active compound alone, bell pepper plants

SMILES | Kill (%) after 6 d [%]
CC(C)Nc1c(-c2ncccc2Cl)c(Cl)nc2c(C(=O)NS(C)(=O)=O)cnn12 [Example I-32] | 10

test system: Boophilus microplus; test: Boophilus microplus test (injection); type: in vivo; settings: application rate of 20 μg/animal
Protocol: Boophilus microplus Test (Injection) Solvent: dimethyl sulphoxide To produce a suitable preparation of active compound, 1 part by weight of active compound is mixed with the stated amount of solvent, and the concentrate is diluted with solvent to the desired concentration. The solution of active compound is injected into the abdomen (Boophilus microplus), the animals are transferred into dishes and stored in a climatized room. After the desired period of time, the effect in % is determined. 100% means that none of the ticks has laid any fertile eggs.

SMILES | effect (no fertile eggs laid) [%]
CC(C)C(C)Nc1c(-n2nc(C(F)(F)F)cc2C(F)(F)F)c(Cl)nc2c(C(=O)NS(C)(=O)=O)cnn12 (centres unmarked) [Example I-4] | ≥ 80
